Reference: patent US20170045513A1, “METHODS OF DIAGNOSING CELIAC DISEASE USING IP-10” (ImmusanT, Inc., priority 2014, published 2017)
Non-standard residues stand in square brackets, D forms with d. pGlu = O=C1CC[C@@H](C(=O)O)N1

Key:
Format in all cases: cell-based, human
[1] = tested on: gluten-reactive T cells; test: Overnight IFNγ ELISpot assay with fresh PBMC; conditions: for Percent of maximal response to individual gluten peptides, ELISp: after oral gluten challenge; for IFNγ ELISpot % max Mean: n = 5, blood after oral gluten challenge, individual peptides 5 μM (Peptide 2* of P14, Pepscan: 10 μg/mL (5.45 μM))
Outline: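 Read-out is IFNγ spot-forming units per well, counted automatically after overnight culture of fresh PBMC (0.4 million/well) with single peptides (duplicate) or pools (triplicate). Donors: HLA-DQ2.5+ celiac patients on gluten-free diet, bled pre- and day 6 after 3-day oral gluten challenge.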

[2] = tested on: gluten-reactive T cells; test: Cytokine release assays taken together (IFNγ ELISpot, whole blood IFNγ and IP-10, in-tube IFNγ ELISA); conditions: for activity relative to Peptide 14 in the cytokine release assays: blood collected after oral gluten challenge; for cytokine release / immunogenicity of individual peptide: HLA-DQ2.5+ celiac disease subjects after gluten challenge
Outline: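 Whole blood with peptides (P3 0.05-50 μg/mL; P13/P14 0.025-25 μM; […]), 24 h, 37 °C; plasma IFNγ/IP-10 by multiplex beads. Tube assay: 1 mL blood with P3 or CEF, 24 h, plasma IFNγ ELISA; elevated if >7.2 pg/mL above medium tube and SI >1.25. ELISpot overnight on fresh PBMC.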

[3] = tested on: gluten-reactive T cells; test: 96-well plate whole blood cytokine release, IFNγ by MAGPIX multiplex bead assay; conditions: for Percent of maximal response to individual gluten peptides, IFNg: after oral gluten challenge; for IFNγ WB MAGPIX % max Mean: n = 8, blood after oral gluten challenge, individual peptides 5 μM (Peptide 2* of P14, Pepscan: 10 μg/mL (5.45 μM))

| Substance | Percent of maximal response to individual gluten peptides, ELISp ([1]; Subject 3, Max. 18 SFU) | Percent of maximal response to individual gluten peptides, ELISp ([1]; Subject 4, Max. 36 SFU) | Percent of maximal response to individual gluten peptides, ELISp ([1]; Subject 6, Max. 16 SFU) | Percent of maximal response to individual gluten peptides, ELISp ([1]; Subject 8, Max. 17 SFU) | Percent of maximal response to individual gluten peptides, ELISp ([1]; Subject 10, Max. 11 SFU) | IFNγ ELISpot % max Mean [1] [% max] | activity relative to Peptide 14 in the cytokine release assays [2] | Percent of maximal response to individual gluten peptides, IFNg ([3]; Subject 2, Max. 116 pg/mL) | Percent of maximal response to individual gluten peptides, IFNg ([3]; Subject 3, Max. 799 pg/mL) | Percent of maximal response to individual gluten peptides, IFNg ([3]; Subject 4, Max. 136 pg/mL) | Percent of maximal response to individual gluten peptides, IFNg ([3]; Subject 6, Max. 72 pg/mL) | Percent of maximal response to individual gluten peptides, IFNg ([3]; Subject 7, Max. 17 pg/mL) | Percent of maximal response to individual gluten peptides, IFNg ([3]; Subject 8, Max. 47 pg/mL) | Percent of maximal response to individual gluten peptides, IFNg ([3]; Subject 9, Max. 67 pg/mL) | Percent of maximal response to individual gluten peptides, IFNg ([3]; Subject 10, Max. 229 pg/mL) | IFNγ WB MAGPIX % max Mean [3] [% max] | cytokine release / immunogenicity of individual peptide [2] |
| --- | --- | --- | --- | --- | --- | --- | --- | --- | --- | --- | --- | --- | --- | --- | --- | --- | --- |
| (pE)QPFPQPEQPFPLQPEQP-amide ([pGlu]QPFPQPEQPFPLQPEQP-NH2; SMILES CC(C)C[C@H](NC(=O)[C@@H]1CCCN1C(=O)[C@H](Cc1ccccc1)NC(=O)[C@@H]1CCCN1C(=O)[C@H](CCC(N)=O)NC(=O)[C@H](CCC(=O)O)NC(=O)[C@@H]1CCCN1C(=O)[C@H](CCC(N)=O)NC(=O)[C@@H]1CCCN1C(=O)[C@H](Cc1ccccc1)NC(=O)[C@@H]1CCCN1C(=O)[C@H](CCC(N)=O)NC(=O)[C@@H]1CCC(=O)N1)C(=O)N[C@@H](CCC(N)=O)C(=O)N1CCC[C@H]1C(=O)N[C@@H](CCC(=O)O)C(=O)N[C@@H](CCC(N)=O)C(=O)N1CCC[C@H]1C(N)=O) [Peptide 6] | 11 % of max | 56 % of max | 31 % of max | 0 % of max | 9 % of max | 21 | approximately one-half to one-fifth as active as Peptide 14 | 58 % of max | 10 % of max | 54 % of max | 4 % of max | 2 % of max | 6 % of max | 69 % of max | 20 % of max | 28 |  |
| (pE)PEQPEQPFPEQPQQ-amide ([pGlu]PEQPEQPFPEQPQQ-NH2; SMILES NC(=O)CC[C@H](NC(=O)[C@H](CCC(N)=O)NC(=O)[C@@H]1CCCN1C(=O)[C@H](CCC(N)=O)NC(=O)[C@H](CCC(=O)O)NC(=O)[C@@H]1CCCN1C(=O)[C@H](Cc1ccccc1)NC(=O)[C@@H]1CCCN1C(=O)[C@H](CCC(N)=O)NC(=O)[C@H](CCC(=O)O)NC(=O)[C@@H]1CCCN1C(=O)[C@H](CCC(N)=O)NC(=O)[C@H](CCC(=O)O)NC(=O)[C@@H]1CCCN1C(=O)[C@@H]1CCC(=O)N1)C(N)=O) [Peptide 11] | 0 % of max | 3 % of max | 6 % of max | 6 % of max | 0 % of max | 3 |  | 0 % of max | 0 % of max | 0 % of max | 0 % of max | 0 % of max | 0 % of max | 0 % of max | 0 % of max | 0 | weak or not distinguishable from medium alone |
| (pE)SGEGSFQPSQENPQ-amide ([pGlu]SGEGSFQPSQENPQ-NH2; SMILES NC(=O)CC[C@H](NC(=O)[C@@H]1CCCN1C(=O)[C@H](CC(N)=O)NC(=O)[C@H](CCC(=O)O)NC(=O)[C@H](CCC(N)=O)NC(=O)[C@H](CO)NC(=O)[C@@H]1CCCN1C(=O)[C@H](CCC(N)=O)NC(=O)[C@H](Cc1ccccc1)NC(=O)[C@H](CO)NC(=O)CNC(=O)[C@H](CCC(=O)O)NC(=O)CNC(=O)[C@H](CO)NC(=O)[C@@H]1CCC(=O)N1)C(N)=O) [Peptide 9] | 0 % of max | 0 % of max | 0 % of max | 6 % of max | 0 % of max | 1 |  | 19 % of max | 0 % of max | 0 % of max | 0 % of max | 0 % of max | 0 % of max | 0 % of max | 0 % of max | 2 | weak or not distinguishable from medium alone |
| (pE)PQPYPEQPQPFPQQ-amide ([pGlu]PQPYPEQPQPFPQQ-NH2; SMILES NC(=O)CC[C@H](NC(=O)[C@H](CCC(N)=O)NC(=O)[C@@H]1CCCN1C(=O)[C@H](Cc1ccccc1)NC(=O)[C@@H]1CCCN1C(=O)[C@H](CCC(N)=O)NC(=O)[C@@H]1CCCN1C(=O)[C@H](CCC(N)=O)NC(=O)[C@H](CCC(=O)O)NC(=O)[C@@H]1CCCN1C(=O)[C@H](Cc1ccc(O)cc1)NC(=O)[C@@H]1CCCN1C(=O)[C@H](CCC(N)=O)NC(=O)[C@@H]1CCCN1C(=O)[C@@H]1CCC(=O)N1)C(N)=O) [Peptide 8] | 44 % of max | 64 % of max | 31 % of max | 18 % of max | 27 % of max | 37 | approximately one-half to one-fifth as active as Peptide 14 | 35 % of max | 24 % of max | 39 % of max | 6 % of max | 0 % of max | 42 % of max | 5 % of max | 45 % of max | 25 |  |
| (pE)QPPFSEQEQPVLPQ-amide (N-terminal pyroglutamate; C-terminal amide) [Peptide 13] | 6 % of max | 6 % of max | 0 % of max | 0 % of max | 0 % of max | 2 |  | 47 % of max | 3 % of max | 0 % of max | 5 % of max | 1 % of max | 0 % of max | 0 % of max | 0 % of max | 7 | weak or not distinguishable from medium alone |
